Measured values published in paper PMC9909137 (Archives of Virology, 2023).
Where two headings read alike, the source gives them in different places.

Experiments:
[1] = tested on: A/teal/Egypt/MB.D125OP/2015 (H7N3, 125OP); test: organism not typed; type: cell-based, avian influenza H7N3 virus; details: MDCK, 72 h, read-out: IC50 125OP
[2] = tested on: A/teal/Egypt/MB.D128OP/2015 (H7N3, 128OP); test: organism not typed; type: cell-based, avian influenza H7N3 virus; details: read-out: IC50 128OP
[3] = tested on: A/teal/Egypt/MB.D487OP/2016 (H7N3, 487OP); test: organism not typed; type: cell-based, avian influenza H7N3 virus; details: MDCK, 72 h, read-out: IC50 487OP
[4] = tested on: A/northern shoveler/Egypt/MB.D690OP/2016 (H7N3, 690OP); test: organism not typed; type: cell-based, avian influenza H7N3 virus; details: MDCK, 72 h, read-out: IC50 690OP
[5] = tested on: A/Puerto Rico/8/34 (H1N1); test: microbe, parasite or virus in culture; type: cell-based; details: Influenza A virus, H1N1, MDCK, 72 h, read-out: IC50 H1N1
[6] = in vitro; details: dog
[7] = tested on: Madin-Darby canine kidney (MDCK) cells; details: dog

| Compound | IC50 [1] | IC50 ([2]; MDCK, 72 h) | IC50 [3] | IC50 [4] | IC50 [5] | CC50 [6] | CC50 [7] | IC50 [2] |
| --- | --- | --- | --- | --- | --- | --- | --- | --- |
| CCOC(=O)C1=C[C@@H](OC(CC)CC)[C@H](NC(C)=O)[C@@H](N)C1 [Oseltamivir, oseltamivir] | 408 µM | 85.7 µM | 15.7 µM | 6.46 µM | 51.2 µM | 516 µM | – | – |
| CC(=O)N[C@H]1[C@H]([C@H](O)[C@H](O)CO)OC(C(=O)O)=C[C@@H]1N=C(N)N [Zanamivir, zanamivir] | 17.1 µM | 85 µM | 14.1 µM | 23.3 µM | 180 µM | 1110 µM | – | – |
| CCC(CC)COC(=O)[C@H](C)N[P@](=O)(OC[C@H]1O[C@@](C#N)(c2ccc3c(N)ncnn23)[C@H](O)[C@@H]1O)Oc1ccccc1 [Remdesivir, remdesivir] | 44.5 µM | 26 µM | 19.1 µM | 41.6 µM | 140 µM | – | 997 µM | – |
| NC(=O)c1nc(F)c[nH]c1=O [Favipiravir, favipiravir] | 3.9 µM | 6.02 µM | 5.4 µM | 4.5 µM | 57.7 µM | 1250 µM | – | 6.02 µM |
| NC12CC3CC(CC(C3)C1)C2 [Amantadine, amantadine] | 17 µM | 45.2 µM | 5.17 µM | 6.5 µM | 77.3 µM | 584 µM | – | – |
